# Measured values as given in patent publication US20250275540A1, “USE OF PROTOPORPHYRINOGEN OXIDASE” (BEIJING DABEINONG BIOTECHNOLOGY CO., LTD., priority 2022, published 2025).
# Test system: transgenic Arabidopsis thaliana T1 plants
# Test: Detection of the herbicide tolerance of the transgenic Arabidopsis thaliana plants
# Type: in vivo
# Details: for The grade of pesticide damage/plant: 0 / The grade of pesticide damage/plant: 1 / The grade of pesticide damage/plant: 2 / The grade of pesticide damage/plant: 3: 7 DAT
# Text: The transformed Arabidopsis thaliana T1 plants were initially selected using glufosinate herbicide. The Arabidopsis thaliana T1 plants (PPOA-01) into which the PPOA-01 nucleotide sequence was introduced, the Arabidopsis thaliana T1 plants (PPOB-01) into which the PPOB-01 nucleotide sequence was introduced, the Arabidopsis thaliana T1 plants (PPOC-01) into which the PPOC-01 nucleotide sequence was introduced, the Arabidopsis thaliana T1 plants (PPOD-01) into which the PPOD-01 nucleotide sequence was introduced, the Arabidopsis thaliana T1 plants (PPOE-01) into which the PPOE-01 nucleotide sequence was introduced, the Arabidopsis thaliana T1 plants (PPOF-01) into which the PPOF-01 nucleotide sequence was introduced, the Arabidopsis thaliana T1 plants (PPO-AP-01) into which the PPO-AP-01 nucleotide sequence was introduced, and the Arabidopsis thaliana T1 plants (control vector) into which the control vector was introduced, the wild-type Arabidopsis thaliana plants (CK) (with 24 plants being included in each genotype) (18 days after sowing) were sprayed with saflufenacil at three concentrations (25 g ai/ha (one-fold field concentration, 1×), 100 g ai/ha (four-fold field concentration, 4×), and 0 g ai/ha (water, 0×)), oxyfluorfen at three concentrations (180 g ai/ha (one-fold field concentration, 1×), 720 g ai/ha (four-fold field concentration, 4×), and 0 g ai/ha (water, 0×)), and flumioxazin at three concentrations (60 g ai/ha (one-fold field concentration, 1×), 240 g ai/ha (four-fold field concentration, 4×), and 0 g ai/ha (water, 0×) to determine the tolerance of Arabidopsis thaliana to the herbicides. After 7 days of spraying (7 DAT), the damage level of each plant caused by the herbicide was evaluated according to the average of the damage levels (%) of plants (the average of the damage levels (%) of plants=the injured leaf area/the total leaf area×100%), i.e., the grade of pesticide damage: grade 0 means that the growth status of plants is essentially consistent with those sprayed with the blank solvent (water); grade 1 means that the average of the damage levels of plants is less than 10%; grade 2 means that the average of the damage levels of plants is greater than 10%; and grade 3 means that the average of the damage levels of plants is 100%. The plants having a growth status falling within grades 0 and 1 are classified as highly resistant plants; those having a growth status falling within grade 2 are classified as poorly resistant plants; and those having a growth status falling within grade 3 are classified as non-resistant plants.
# [1] = genotype Control vector, 180 g ai/ha
# [2] = genotype Control vector, 720 g ai/ha
# [3] = genotype PPO-AP-01, 180 g ai/ha
# [4] = genotype PPO-AP-01, 720 g ai/ha
structure (smiles),measurement,setting,value
"CCOc1cc(Oc2ccc(C(F)(F)F)cc2Cl)ccc1[N+](=O)[O-] [oxyfluorfen, 2-chloro-1-(3-ethoxy-4-nitrophenoxy)-4-trifluoromethylbenzene]",effective dose distinguishing sensitive plants from plants having an average level of resistance,Arabidopsis thaliana,180 g ai/ha
same,The grade of pesticide damage/plant: 0,"genotype CK, 180 g ai/ha",0 plant
same,The grade of pesticide damage/plant: 1,"genotype CK, 180 g ai/ha",0 plant
same,The grade of pesticide damage/plant: 2,"genotype CK, 180 g ai/ha",0 plant
same,The grade of pesticide damage/plant: 3,"genotype CK, 180 g ai/ha",24 plant
same,The grade of pesticide damage/plant: 0,"genotype CK, 720 g ai/ha",0 plant
same,The grade of pesticide damage/plant: 1,"genotype CK, 720 g ai/ha",0 plant
same,The grade of pesticide damage/plant: 2,"genotype CK, 720 g ai/ha",0 plant
same,The grade of pesticide damage/plant: 3,"genotype CK, 720 g ai/ha",24 plant
same,The grade of pesticide damage/plant: 0,[1],0 plant
same,The grade of pesticide damage/plant: 1,[1],0 plant
same,The grade of pesticide damage/plant: 2,[1],0 plant
same,The grade of pesticide damage/plant: 3,[1],24 plant
same,The grade of pesticide damage/plant: 0,[2],0 plant
same,The grade of pesticide damage/plant: 1,[2],0 plant
same,The grade of pesticide damage/plant: 2,[2],0 plant
same,The grade of pesticide damage/plant: 3,[2],24 plant
same,The grade of pesticide damage/plant: 0,[3],0 plant
same,The grade of pesticide damage/plant: 1,[3],0 plant
same,The grade of pesticide damage/plant: 2,[3],0 plant
same,The grade of pesticide damage/plant: 3,[3],24 plant
same,The grade of pesticide damage/plant: 0,[4],0 plant
same,The grade of pesticide damage/plant: 1,[4],0 plant
same,The grade of pesticide damage/plant: 2,[4],0 plant
same,The grade of pesticide damage/plant: 3,[4],24 plant
same,tolerance to the herbicide (in words),"genotype PPO-AP-01, at different concentrations",no tolerance
same,The grade of pesticide damage/plant: 0,"genotype PPOA-01, 180 g ai/ha",24 plant
same,The grade of pesticide damage/plant: 1,"genotype PPOA-01, 180 g ai/ha",0 plant
same,The grade of pesticide damage/plant: 2,"genotype PPOA-01, 180 g ai/ha",0 plant
same,The grade of pesticide damage/plant: 3,"genotype PPOA-01, 180 g ai/ha",0 plant
same,The grade of pesticide damage/plant: 0,"genotype PPOA-01, 720 g ai/ha",24 plant
same,The grade of pesticide damage/plant: 1,"genotype PPOA-01, 720 g ai/ha",0 plant
same,The grade of pesticide damage/plant: 2,"genotype PPOA-01, 720 g ai/ha",0 plant
same,The grade of pesticide damage/plant: 3,"genotype PPOA-01, 720 g ai/ha",0 plant
same,The grade of pesticide damage/plant: 0,"genotype PPOB-01, 180 g ai/ha",24 plant
same,The grade of pesticide damage/plant: 1,"genotype PPOB-01, 180 g ai/ha",0 plant
same,The grade of pesticide damage/plant: 2,"genotype PPOB-01, 180 g ai/ha",0 plant
same,The grade of pesticide damage/plant: 3,"genotype PPOB-01, 180 g ai/ha",0 plant
same,The grade of pesticide damage/plant: 0,"genotype PPOB-01, 720 g ai/ha",24 plant
same,The grade of pesticide damage/plant: 1,"genotype PPOB-01, 720 g ai/ha",0 plant
same,The grade of pesticide damage/plant: 2,"genotype PPOB-01, 720 g ai/ha",0 plant
same,The grade of pesticide damage/plant: 3,"genotype PPOB-01, 720 g ai/ha",0 plant
same,The grade of pesticide damage/plant: 0,"genotype PPOC-01, 180 g ai/ha",24 plant
same,The grade of pesticide damage/plant: 1,"genotype PPOC-01, 180 g ai/ha",0 plant
same,The grade of pesticide damage/plant: 2,"genotype PPOC-01, 180 g ai/ha",0 plant
same,The grade of pesticide damage/plant: 3,"genotype PPOC-01, 180 g ai/ha",0 plant
same,The grade of pesticide damage/plant: 0,"genotype PPOC-01, 720 g ai/ha",24 plant
same,The grade of pesticide damage/plant: 1,"genotype PPOC-01, 720 g ai/ha",0 plant
same,The grade of pesticide damage/plant: 2,"genotype PPOC-01, 720 g ai/ha",0 plant
same,The grade of pesticide damage/plant: 3,"genotype PPOC-01, 720 g ai/ha",0 plant
same,The grade of pesticide damage/plant: 0,"genotype PPOD-01, 180 g ai/ha",24 plant
same,The grade of pesticide damage/plant: 1,"genotype PPOD-01, 180 g ai/ha",0 plant
same,The grade of pesticide damage/plant: 2,"genotype PPOD-01, 180 g ai/ha",0 plant
same,The grade of pesticide damage/plant: 3,"genotype PPOD-01, 180 g ai/ha",0 plant
same,The grade of pesticide damage/plant: 0,"genotype PPOD-01, 720 g ai/ha",24 plant
same,The grade of pesticide damage/plant: 1,"genotype PPOD-01, 720 g ai/ha",0 plant
same,The grade of pesticide damage/plant: 2,"genotype PPOD-01, 720 g ai/ha",0 plant
same,The grade of pesticide damage/plant: 3,"genotype PPOD-01, 720 g ai/ha",0 plant
same,The grade of pesticide damage/plant: 0,"genotype PPOE-01, 180 g ai/ha",22 plant
same,The grade of pesticide damage/plant: 1,"genotype PPOE-01, 180 g ai/ha",2 plant
same,The grade of pesticide damage/plant: 2,"genotype PPOE-01, 180 g ai/ha",0 plant
same,The grade of pesticide damage/plant: 3,"genotype PPOE-01, 180 g ai/ha",0 plant
same,The grade of pesticide damage/plant: 0,"genotype PPOE-01, 720 g ai/ha",15 plant
same,The grade of pesticide damage/plant: 1,"genotype PPOE-01, 720 g ai/ha",9 plant
same,The grade of pesticide damage/plant: 2,"genotype PPOE-01, 720 g ai/ha",0 plant
same,The grade of pesticide damage/plant: 3,"genotype PPOE-01, 720 g ai/ha",0 plant
same,The grade of pesticide damage/plant: 0,"genotype PPOF-01, 180 g ai/ha",24 plant
same,The grade of pesticide damage/plant: 1,"genotype PPOF-01, 180 g ai/ha",0 plant
same,The grade of pesticide damage/plant: 2,"genotype PPOF-01, 180 g ai/ha",0 plant
same,The grade of pesticide damage/plant: 3,"genotype PPOF-01, 180 g ai/ha",0 plant
same,The grade of pesticide damage/plant: 0,"genotype PPOF-01, 720 g ai/ha",24 plant
same,The grade of pesticide damage/plant: 1,"genotype PPOF-01, 720 g ai/ha",0 plant
same,The grade of pesticide damage/plant: 2,"genotype PPOF-01, 720 g ai/ha",0 plant
same,The grade of pesticide damage/plant: 3,"genotype PPOF-01, 720 g ai/ha",0 plant
same,tolerance to the herbicide (in words),"genotypes PPOA-01 to PPOF-01, at different concentrations, compared with the control vector and CK",high-resistant tolerance
